{"source": "patent US20080103199A1", "about": "“TREATMENT OF PERVASIVE DEVELOPMENTAL DISORDERS” (priority 2006, published 2008)", "test_system": "submissive rats", "test": "Reduction of Submissive Behavior Model (RSBM) of depression, dominant-submissive rat food competition test", "assay_type": "in vivo, Sprague-Dawley rats", "settings": "treatment of submissive rats; unpublished observation", "text": "In this study, the effects of COMPOUND #7 on dominant or submissive behavior in pairs of rats competing for food are examined. It has been shown that anti-manic drugs, including anticonvulsants, decrease dominance and antidepressant drugs reduce submissiveness. This model uses dominant behavior as a model of mania and submissive behavior as a model of depression. The dominance and submissiveness is defined in a competition test and measured as the relative success of two food-restricted rats to gain access to a feeder. Rats are randomly paired and placed in an apparatus allowing them to compete for a food reward. The dominant-submissive relationship develops over a 2-week period. The submissive or dominant animals in pairs selected after 2 weeks of training were treated orally […] (b.i.d.) with COMPOUND #7 at 3 or 30 mg/kg for 5 weeks. The partner of the drug-treated animal was treated with vehicle.\nThe objective of this study was to determine if COMPOUND #7 is active in the Reduction of Submissive Behavior Model (RSBM) of depression and the Reduction of Dominant Behavior Model (RDBM) of mania. Measurements were made at two doses (3 and 30 mg/kg) after oral twice a day (b.i.d.) administration. The effect of the drug in the RSBM was compared to the effect of fluoxetine (10 mg/kg) and vehicle (0.5% methylcellulose). The effect of the drug in the RDBM was compared with the effect of lithium (100 mg/kg) and vehicle (0.5% methylcellulose). The endpoints measured were the development of a significant reduction of submissive or dominant behavior and its time of onset.\nThe DSR developed by two rats competing for food uses the apparatus in FIG. 1.\nIn the experiments described in this report Sprague-Dawley rats weighing 160 to 180 g were used. Testing for the development of a DSR between paired rats begins with the random assignment of rats into pairs. […]\nThe test involves placing each member of a pair in opposite chambers of the testing apparatus. […] The test is conducted once a day over a 5-minute period and the time spent on the feeder by each animal is recorded. […]", "data": [{"molecule": "CC(N)Cc1ccccc1", "note": "(stereo not shown) [amphetamine, reference compound]", "values": [{"measurement": "Effect on submissive behavior", "result": "ineffective"}]}]}
